These are literature values, as cited in patent US11771690B2, “Solid particle, preparation method therefor, and pharmaceutical composition containing solid particle” (SHANGHAI WD PHARMACEUTICAL CO., LTD, priority 2018, dated 2023).

Take `C[C@]12C=CC(=O)N[C@@H]1CC[C@@H]1[C@@H]2CC[C@]2(C)[C@@H](C(=O)Nc3cc(C(F)(F)F)ccc3C(F)(F)F)CC[C@@H]12` [Dutasteride, (5α,17β)-N-{2,5-bis(trifluoromethyl)phenyl}-3-oxo-4-azaandrost-1-ene-17-carboxamide]: the solubility in water result is on record as “insoluble”.
